Consider ten compounds from article PMC10114980, “Triple targeting of mutant EGFR^L858R/T790M, COX-2, and 15-LOX: design and synthesis of novel quinazolinone tethered phenyl urea derivatives for anti-inflammatory and anticancer evaluation” (Journal of Enzyme Inhibition and Medicinal Chemistry, 2023).

For test [1], the system named is 60 NCI cancer cell lines panel. The experiment in a line: NCI 60 cell lines panel single dose screen, whole panel. In kind it is cell-based, human. Particulars: single dose 10^−5 M; for inhibition at 10 µM: Homo sapiens, 60 cell, read-out: growth inhibition percentages range over the sensitive cell lines; for number of cell lines with anticancer activity out of the 60 NCI cell lines: GI higher than 10%. The procedure:
(§1) Screening of the anticancer activity of the newly synthesised compounds (6a, 6c, 6d, 6e, 6j, 6l, 6m, 6n, 6o, and 6p) was performed by the US National Cancer Institute (NCI) using 60 different human tumour cell lines in accordance with standard procedures formerly reported.
(§2) In vitro anticancer screening was carried out for the selected compounds at a single dose (10^−5 M) against 60 different human tumour cell lines of nine different cancer cell types: leukaemia, lung, colon, CNS, melanoma, ovarian, renal, prostate, and breast cancers.

Test [2] deals with NCI-H23. The experiment in a line: NCI single dose screen, NCI-H23. The test is classed as cell-based. Particulars: Homo sapiens; NCI-H23, non-small cell lung cancer; single dose 10^−5 M; read-out: growth inhibition percentage. The procedure: as §1, §2
Test [3] deals with NCI-H460. The experiment in a line: NCI single dose screen, NCI-H460. The test is classed as cell-based. To be noted: Homo sapiens; NCI-H460, non-small cell lung cancer; single dose 10^−5 M; read-out: growth inhibition percentage. The procedure: as §1, §2
Test [4] concerns SF-268. Kind of test: NCI single dose screen, SF-268. In kind it is cell-based. Particulars: Homo sapiens; SF-268, CNS cancer; single dose 10^−5 M; read-out: growth inhibition percentage. How it is done:
as §1, §2

The target of test [5] is T1, ovine COX-1 (Ovis aries, UniProt P05979).
T1 sequence (P05979 25-600): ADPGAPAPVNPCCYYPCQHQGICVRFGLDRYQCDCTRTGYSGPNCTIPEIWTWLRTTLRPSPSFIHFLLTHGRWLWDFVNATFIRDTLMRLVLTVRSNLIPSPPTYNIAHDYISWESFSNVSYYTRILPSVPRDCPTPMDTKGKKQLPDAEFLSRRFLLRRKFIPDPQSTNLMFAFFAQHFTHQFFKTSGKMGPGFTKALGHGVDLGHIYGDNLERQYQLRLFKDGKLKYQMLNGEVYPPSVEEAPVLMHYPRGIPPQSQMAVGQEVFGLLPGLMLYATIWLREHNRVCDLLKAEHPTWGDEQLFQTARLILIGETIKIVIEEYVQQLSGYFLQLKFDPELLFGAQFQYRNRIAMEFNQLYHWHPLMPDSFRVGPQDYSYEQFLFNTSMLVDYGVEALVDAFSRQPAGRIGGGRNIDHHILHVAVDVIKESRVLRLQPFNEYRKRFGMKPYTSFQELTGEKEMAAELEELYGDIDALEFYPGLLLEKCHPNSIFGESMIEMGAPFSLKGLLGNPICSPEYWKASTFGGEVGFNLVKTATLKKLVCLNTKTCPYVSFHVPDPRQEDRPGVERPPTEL
The experiment in a line: In vitro COX-1 inhibition assay kit (Cayman). The test is classed as biochemical. Particulars: mean ± SEM, n = 3 replicates.
Protocol: The half-maximal inhibitory concentration (IC50, μM) was determined, and the COX-2 selectivity index (SI) was calculated as IC50 (COX-1)/IC50 (COX-2).

Test [6] has as its system MCF7. Kind of test: NCI single dose screen, MCF7. Particulars: Homo sapiens; MCF7, breast cancer; single dose 10^−5 M; read-out: growth inhibition percentage. The test is classed as cell-based. The procedure: as §1, §2
Test [7] deals with RPMI-8226. The experiment in a line: NCI single dose screen, RPMI-8226. The test is classed as cell-based. To be noted: Homo sapiens; RPMI-8226, leukaemia; single dose 10^−5 M; read-out: growth inhibition percentage. How it is done: as §1, §2
The subject of test [8] is SF-295. The experiment in a line: NCI single dose screen, SF-295. In kind it is cell-based. To be noted: Homo sapiens; SF-295, CNS cancer; single dose 10^−5 M; read-out: growth inhibition percentage. The procedure: as §1, §2
The subject of test [9] is COLO 205. The experiment in a line: NCI single dose screen, COLO 205. Particulars: Homo sapiens; COLO 205, colon cancer; single dose 10^−5 M; read-out: growth inhibition percentage. The test is classed as cell-based. How it is done:
as §1, §2

The inhibition is the relative decrease from the control value, in per cent. One may read the IC50 as the concentration at which inhibition is half-maximal.

Molecules are shown by their SMILES. A value given as a limit tells only on which side of the number the result lay.

As to `CN1CN(NC(=O)Nc2ccccc2)C(=O)c2ccccc21` [Compound 6a, 1-(1-Methyl-4-oxo-1,4-dihydroquinazolin-3(2H)-yl)-3-phenylurea], in test [1], the “anticancer activity in the NCI 60 panel (in words)” value is given as “did not show any anticancer activities”. In addition, the inhibition at 10 µM in [2], in test [3], in test [4], in [6], in test [7] and in test [8] was below 10% each time. In addition, the inhibition at 10 µM in test [9] was below 10%. This compound also gave a concentration for half-maximal inhibition (IC50) in [5] of 12.5 ± 1.36 µM.

For the compound `CN1c2ccccc2C(=O)N(NC(=O)Nc2ccccc2)C1c1ccccc1` (centres unmarked) [Compound 6c, 1-(1-Methyl-4-oxo-2-phenyl-1,4-dihydroquinazolin-3(2H)-yl)-3-phenylurea], the inhibition at 10 µM in test [2], in test [3], in [4], in [6], in [7] and in test [8] was below 10% each time. In test [9], the inhibition at 10 µM is below 10%. This compound also showed an IC50 in test [5] of 1 ± 1.78 µM.

Turning to `CN1c2ccccc2C(=O)N(NC(=O)Nc2ccccc2)C1c1ccc(F)cc1` (centres unmarked) [Compound 6d, 1-(2-(4-Fluorophenyl)-1-methyl-4-oxo-1,4-dihydroquinazolin-3(2H)-yl)-3-phenylurea], the inhibition at 10 µM in [2], in [3], in [4], in [6], in [7] and in test [8] was below 10% each time. Further, the inhibition at 10 µM in test [9] was below 10%. This compound also returned an IC50 in test [5] of 4.56 ± 1.33 µM.

On to `CN1c2ccccc2C(=O)N(NC(=O)Nc2ccccc2)C1c1ccc([N+](=O)[O-])cc1` (centres unmarked) [Compound 6e, 1-(1-Methyl-2-(4-nitrophenyl)-4-oxo-1,4-dihydroquinazolin-3(2H)-yl)-3-phenylurea], for which the inhibition at 10 µM in test [2], in [3], in test [4], in test [6], in [7] and in [8] was below 10% throughout. In test [9], the inhibition at 10 µM is below 10%. The compound further displayed an IC50 in test [5] of 9.53 ± 1.21 µM.

With `COc1ccc(NC(=O)NN2C(=O)c3ccccc3N(C)C2c2ccc(OC)cc2)cc1` (centres unmarked) [Compound 6j, 1-(4-Methoxyphenyl)-3-(2-(4-methoxyphenyl)-1-methyl-4-oxo-1,4-dihydroquinazolin-3(2H)-yl)urea], the inhibition at 10 µM in test [2], in [3], in test [4], in [6], in [7] and in test [8] was below 10% each time. Further, in test [9], the inhibition at 10 µM was below 10%. Also, in [5], the IC50 was found to be 26.9 ± 3.03 µM.

As to `CC1N(NC(=O)Nc2ccc(F)cc2)C(=O)c2ccccc2N1C` (centres unmarked) [Compound 6l, 1–(1,2-Dimethyl-4-oxo-1,4-dihydroquinazolin-3(2H)-yl)-3-(4-fluorophenyl)urea], the inhibition at 10 µM in test [2] was below 10%; in test [3], below 10%; in test [4] it was below 10%; in test [6] it was 10.7%; in test [7] it was below 10%; in test [8], below 10%. For the same compound, the inhibition at 10 µM in test [9] was below 10%.

As for `CN1c2ccccc2C(=O)N(NC(=O)Nc2ccc(F)cc2)C1c1ccccc1` (centres unmarked) [Compound 6m, 1-(4-Fluorophenyl)-3-(1-methyl-4-oxo-2-phenyl-1,4-dihydroquinazolin-3(2H)-yl)urea], the inhibition at 10 µM in test [1] is 10.5 to 40.1%; in [2], below 10%; in [3] it was below 10%; in test [4] it was below 10%; in test [6] it was 21.2%; in test [7] it was 16.1%. Besides, the inhibition at 10 µM in test [8] and in test [9] was below 10% each time. In addition, the “number of cell lines with anticancer activity out of the 60 NCI cell lines” value (“number of cell lines” below) in test [1] stood at 19. Also, in [5], the IC50 amounted to 12.4 ± 2.74 µM.

Turning to `CN1c2ccccc2C(=O)N(NC(=O)Nc2ccc(F)cc2)C1c1ccc(F)cc1` (centres unmarked) [Compound 6n, 1-(4-Fluorophenyl)-3-(2–(4-fluorophenyl)-1-methyl-4-oxo-1,4-dihydroquinazolin-3(2H)-yl)urea], the inhibition at 10 µM was 10.1 to 57.1% in test [1]; below 10% in test [2]; below 10% in test [3]; 21.7% in [4]; 29.9% in [6]; 33.1% in [7]. The inhibition at 10 µM in [8] and in [9] was below 10% in each case. Further, in test [1], the “number of cell lines” value turned out to be 32. For the same compound, half-maximal inhibition in test [5] (IC50) required 10.5 ± 1.48 µM.

On to `CN1c2ccccc2C(=O)N(NC(=O)Nc2ccc(F)cc2)C1c1ccc([N+](=O)[O-])cc1` (centres unmarked) [Compound 6o, 1-(4-Fluorophenyl)-3–(1-methyl-2-(4-nitrophenyl)-4-oxo-1,4-dihydroquinazolin-3(2H)-yl)urea], for which the inhibition at 10 µM in test [1] was 10.7 to 41.3%; in test [2], below 10%; in [3] it was below 10%; in test [4] it was below 10%; in test [6], 17.9%; in test [7], 22.4%. Also, the inhibition at 10 µM in test [8] and in [9] was below 10% each time. Further, the “number of cell lines” value in test [1] amounted to 21. In [5], the half-inhibitory concentration (IC50) is above 100 µM.

Consider `COc1ccc(C2N(NC(=O)Nc3ccc(F)cc3)C(=O)c3ccccc3N2C)cc1` (centres unmarked) [Compound 6p, 1-(4-Fluorophenyl)-3-(2–(4-methoxyphenyl)-1-methyl-4-oxo-1,4-dihydroquinazolin-3(2H)-yl)urea], for which the inhibition at 10 µM in test [2] was below 10%; in [3], below 10%; in test [4], below 10%; in test [6], 14.7%; in test [7] it was 11.2%; in [8], below 10%. The inhibition at 10 µM in test [9] was below 10%. Also, half-maximal inhibition in test [5] (IC50) required 88.5 ± 3.01 µM.
